# Source: PMC12827894, “Structure-guided design of picomolar-level macrocyclic TRPC5 channel inhibitors with antidepressant activity” (Acta Pharmaceutica Sinica. B, 2025)
# Where a SMILES comes first, the peptide text is derived from it. Bridges are numbered along the chain shown (N, C = ends).
# Experiments:
# IKs = target: T1, IKs (Homo sapiens, UniProt P51787); experiment: SafetyOne44 panel ion channels: IKs; format: cell-based
# T1 construct: ICE Bioscience ICESTP SafetyOne44 Panel
# nAChRα4β2 = target: T2, nAChRα4β2 (Homo sapiens, UniProt P17787+P43681); experiment: SafetyOne44 panel ion channels: nAChRα4β2; format: cell-based; conditions: nAChRα4β2, antagonist mode; read-out: Antagonist Reference Compounds IC50
# T2 construct: ICE Bioscience ICESTP SafetyOne44 Panel
# 5-HTT = target: T3, 5-HTT (Homo sapiens, UniProt P31645); experiment: SafetyOne44 panel: 5-HTT; format: cell-based; conditions: read-out: Antagonist Reference Compound IC50
# T3 construct: purchased ICE Bioscience ICESTP™ SafetyOne44 Panel
# DAT = target: T4, DAT (Homo sapiens, UniProt Q01959); experiment: SafetyOne44 panel: DAT; format: cell-based; conditions: read-out: Antagonist Reference Compound IC50
# T4 construct: purchased ICE Bioscience ICESTP™ SafetyOne44 Panel
# T4 sequence (Q01959 whole entry): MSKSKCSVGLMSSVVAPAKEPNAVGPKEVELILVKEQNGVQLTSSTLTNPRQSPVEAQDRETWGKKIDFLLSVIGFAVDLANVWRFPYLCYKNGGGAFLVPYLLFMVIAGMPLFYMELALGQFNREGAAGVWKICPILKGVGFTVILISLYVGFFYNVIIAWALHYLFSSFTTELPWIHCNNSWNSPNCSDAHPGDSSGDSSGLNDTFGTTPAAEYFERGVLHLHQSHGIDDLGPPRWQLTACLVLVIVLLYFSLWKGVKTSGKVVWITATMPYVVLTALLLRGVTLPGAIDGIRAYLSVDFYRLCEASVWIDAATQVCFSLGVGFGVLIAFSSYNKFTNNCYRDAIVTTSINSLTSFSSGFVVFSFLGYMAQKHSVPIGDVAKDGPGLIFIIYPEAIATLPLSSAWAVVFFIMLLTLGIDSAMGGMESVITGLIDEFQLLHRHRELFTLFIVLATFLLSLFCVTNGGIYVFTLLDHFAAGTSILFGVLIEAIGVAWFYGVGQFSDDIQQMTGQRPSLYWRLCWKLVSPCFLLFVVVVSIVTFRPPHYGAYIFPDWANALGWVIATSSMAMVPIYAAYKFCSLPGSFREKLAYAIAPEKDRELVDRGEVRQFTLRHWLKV
# NET = target: T5, NET (Homo sapiens, UniProt P23975); experiment: SafetyOne44 panel: NET; format: cell-based
# T5 construct: ICE Bioscience ICESTP SafetyOne44 Panel
# T5 sequence (P23975 whole entry): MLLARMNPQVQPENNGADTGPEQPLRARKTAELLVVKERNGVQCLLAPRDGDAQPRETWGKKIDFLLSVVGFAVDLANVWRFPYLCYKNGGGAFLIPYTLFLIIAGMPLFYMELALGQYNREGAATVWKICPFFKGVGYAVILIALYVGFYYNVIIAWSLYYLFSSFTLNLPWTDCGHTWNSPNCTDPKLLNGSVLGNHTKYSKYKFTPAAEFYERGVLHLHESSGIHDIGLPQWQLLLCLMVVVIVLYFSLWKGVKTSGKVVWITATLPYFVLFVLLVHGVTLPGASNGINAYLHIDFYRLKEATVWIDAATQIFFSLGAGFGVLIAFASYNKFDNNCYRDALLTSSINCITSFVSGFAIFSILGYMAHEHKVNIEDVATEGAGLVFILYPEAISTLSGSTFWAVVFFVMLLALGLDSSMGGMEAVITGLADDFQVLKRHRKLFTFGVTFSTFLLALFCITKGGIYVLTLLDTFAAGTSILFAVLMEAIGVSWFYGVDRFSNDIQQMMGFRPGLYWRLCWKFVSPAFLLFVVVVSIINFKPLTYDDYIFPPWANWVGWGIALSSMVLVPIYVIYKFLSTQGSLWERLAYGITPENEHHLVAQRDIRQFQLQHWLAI
# NR1/NR2B = target: T6, NR1/NR2B (Homo sapiens, UniProt Q05586+Q13224); experiment: SafetyOne44 panel ion channels: NR1/NR2B; format: cell-based
# T6 construct: ICE Bioscience ICESTP SafetyOne44 Panel
# T6 sequence (Q13224 27-1484, other chains not shown): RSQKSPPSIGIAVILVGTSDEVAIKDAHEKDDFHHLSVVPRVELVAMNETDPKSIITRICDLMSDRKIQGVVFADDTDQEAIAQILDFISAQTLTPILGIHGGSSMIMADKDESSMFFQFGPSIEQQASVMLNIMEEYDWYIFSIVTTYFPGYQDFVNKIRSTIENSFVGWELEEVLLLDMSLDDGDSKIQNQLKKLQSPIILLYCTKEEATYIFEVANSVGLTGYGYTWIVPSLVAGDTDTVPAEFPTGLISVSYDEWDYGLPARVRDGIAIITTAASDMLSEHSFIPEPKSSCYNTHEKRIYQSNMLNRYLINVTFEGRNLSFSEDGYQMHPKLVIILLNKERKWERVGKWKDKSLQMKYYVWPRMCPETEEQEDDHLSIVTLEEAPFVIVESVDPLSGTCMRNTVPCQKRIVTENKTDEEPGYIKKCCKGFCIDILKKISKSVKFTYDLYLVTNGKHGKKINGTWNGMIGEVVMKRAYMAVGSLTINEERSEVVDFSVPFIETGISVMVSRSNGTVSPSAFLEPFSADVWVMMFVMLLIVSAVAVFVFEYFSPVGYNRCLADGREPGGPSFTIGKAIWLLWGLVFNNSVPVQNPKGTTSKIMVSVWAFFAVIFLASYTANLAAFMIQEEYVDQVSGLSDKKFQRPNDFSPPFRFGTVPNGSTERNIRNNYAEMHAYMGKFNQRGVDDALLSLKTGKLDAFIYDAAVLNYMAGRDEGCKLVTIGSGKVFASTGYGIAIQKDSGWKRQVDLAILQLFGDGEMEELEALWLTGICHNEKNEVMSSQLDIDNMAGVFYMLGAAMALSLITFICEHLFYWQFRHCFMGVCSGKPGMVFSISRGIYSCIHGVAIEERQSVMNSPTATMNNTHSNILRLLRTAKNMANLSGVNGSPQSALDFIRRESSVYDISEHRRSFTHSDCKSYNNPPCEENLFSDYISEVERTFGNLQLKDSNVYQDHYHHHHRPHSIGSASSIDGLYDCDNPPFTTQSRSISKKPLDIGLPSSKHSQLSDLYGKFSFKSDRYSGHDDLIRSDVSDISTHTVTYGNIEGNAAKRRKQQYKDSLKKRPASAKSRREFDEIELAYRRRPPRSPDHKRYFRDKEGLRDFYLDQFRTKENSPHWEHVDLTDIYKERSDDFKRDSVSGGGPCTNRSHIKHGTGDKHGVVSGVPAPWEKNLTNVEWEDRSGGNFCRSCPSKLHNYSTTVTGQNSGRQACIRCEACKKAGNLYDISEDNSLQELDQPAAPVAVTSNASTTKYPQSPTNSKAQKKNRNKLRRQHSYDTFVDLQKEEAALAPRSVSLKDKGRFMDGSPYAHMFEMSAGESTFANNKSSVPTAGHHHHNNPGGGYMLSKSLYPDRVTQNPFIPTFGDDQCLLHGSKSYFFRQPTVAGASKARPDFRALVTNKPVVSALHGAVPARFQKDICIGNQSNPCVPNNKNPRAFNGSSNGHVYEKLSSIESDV
# ETA = target: T7, ETA (Homo sapiens, UniProt P25101); experiment: SafetyOne44 panel: ETA; format: cell-based
# T7 construct: purchased ICE Bioscience ICESTP™ SafetyOne44 Panel
# T7 sequence (P25101 21-427): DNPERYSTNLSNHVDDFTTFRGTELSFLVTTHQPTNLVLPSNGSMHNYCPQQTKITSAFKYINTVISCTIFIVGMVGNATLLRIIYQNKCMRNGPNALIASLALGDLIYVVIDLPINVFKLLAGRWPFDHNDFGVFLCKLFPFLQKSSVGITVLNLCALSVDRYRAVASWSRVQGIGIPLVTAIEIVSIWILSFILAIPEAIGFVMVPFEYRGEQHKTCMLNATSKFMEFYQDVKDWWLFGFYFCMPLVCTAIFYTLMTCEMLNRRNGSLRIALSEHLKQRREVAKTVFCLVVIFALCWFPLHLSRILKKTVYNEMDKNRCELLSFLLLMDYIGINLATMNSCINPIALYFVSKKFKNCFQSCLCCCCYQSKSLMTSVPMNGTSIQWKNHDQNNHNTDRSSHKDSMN
# CCK1 = target: T8, CCK1 (Homo sapiens, UniProt P32238); experiment: SafetyOne44 panel: CCK1; format: cell-based; conditions: CCK1, antagonist mode; read-out: Antagonist Reference Compound IC50
# T8 construct: purchased ICE Bioscience ICESTP™ SafetyOne44 Panel
# T8 sequence (P32238 1-428): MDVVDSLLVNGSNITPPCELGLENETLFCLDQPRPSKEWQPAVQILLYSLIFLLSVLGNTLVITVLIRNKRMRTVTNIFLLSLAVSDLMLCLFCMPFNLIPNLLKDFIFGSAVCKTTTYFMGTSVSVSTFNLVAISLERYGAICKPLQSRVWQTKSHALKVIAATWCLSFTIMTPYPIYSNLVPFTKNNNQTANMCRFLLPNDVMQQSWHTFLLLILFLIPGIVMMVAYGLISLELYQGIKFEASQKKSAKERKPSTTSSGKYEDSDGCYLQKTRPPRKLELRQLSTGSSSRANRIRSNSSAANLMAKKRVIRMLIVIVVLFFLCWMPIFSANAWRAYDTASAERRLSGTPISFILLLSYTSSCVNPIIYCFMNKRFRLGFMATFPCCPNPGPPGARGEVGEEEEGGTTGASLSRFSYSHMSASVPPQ
# H2 = target: T9, H2 (Homo sapiens, UniProt P25021); experiment: SafetyOne44 panel: H2; format: cell-based; conditions: H2, antagonist mode; read-out: Antagonist Reference Compound IC50
# T9 construct: purchased ICE Bioscience ICESTP™ SafetyOne44 Panel
# 5-HT2B = target: T10, 5-HT2B (Homo sapiens, UniProt P41595); experiment: cell-based; format: cell-based; conditions: read-out: Antagonist Reference Compound IC50
# T10 construct: purchased ICE Bioscience ICESTP SafetyOne44 Panel
# T10 sequence (P41595 whole entry): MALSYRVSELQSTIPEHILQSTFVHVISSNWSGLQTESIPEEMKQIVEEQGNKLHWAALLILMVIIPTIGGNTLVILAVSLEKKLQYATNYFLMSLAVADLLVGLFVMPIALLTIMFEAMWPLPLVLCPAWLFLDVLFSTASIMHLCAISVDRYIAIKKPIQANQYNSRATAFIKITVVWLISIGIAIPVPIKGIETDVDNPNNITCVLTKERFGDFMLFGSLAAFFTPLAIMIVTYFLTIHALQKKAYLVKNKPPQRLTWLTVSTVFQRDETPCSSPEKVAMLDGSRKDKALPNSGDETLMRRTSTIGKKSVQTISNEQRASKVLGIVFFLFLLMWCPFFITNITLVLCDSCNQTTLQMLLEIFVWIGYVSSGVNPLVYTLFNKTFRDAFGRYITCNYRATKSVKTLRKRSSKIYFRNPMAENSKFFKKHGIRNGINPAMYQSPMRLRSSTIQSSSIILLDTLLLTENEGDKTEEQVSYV
# 5-HT1B = target: T11, 5-HT1B (Homo sapiens, UniProt P28222); experiment: cell-based; conditions: agonist mode, read-out: Agonist Reference Compound EC50
# T11 construct: purchased ICE Bioscience ICESTP SafetyOne44 Panel
# T11 sequence (P28222 whole entry): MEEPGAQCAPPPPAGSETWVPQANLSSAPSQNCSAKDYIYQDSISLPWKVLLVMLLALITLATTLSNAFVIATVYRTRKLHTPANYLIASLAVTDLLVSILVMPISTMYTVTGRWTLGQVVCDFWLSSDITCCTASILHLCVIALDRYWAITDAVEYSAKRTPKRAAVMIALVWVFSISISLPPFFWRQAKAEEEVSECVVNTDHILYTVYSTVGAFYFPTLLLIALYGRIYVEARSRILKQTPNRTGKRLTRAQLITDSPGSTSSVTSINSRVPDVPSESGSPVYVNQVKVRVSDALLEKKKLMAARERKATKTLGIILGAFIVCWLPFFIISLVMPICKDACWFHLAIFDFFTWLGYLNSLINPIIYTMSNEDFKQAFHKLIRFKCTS
# LCK = target: T12, LCK (Homo sapiens, UniProt P06239); experiment: biochemical; conditions: read-out: Antagonist Reference Compound IC50
# T12 construct: purchased ICE Bioscience ICESTP™ SafetyOne44 Panel
# T12 sequence (P06239 whole entry): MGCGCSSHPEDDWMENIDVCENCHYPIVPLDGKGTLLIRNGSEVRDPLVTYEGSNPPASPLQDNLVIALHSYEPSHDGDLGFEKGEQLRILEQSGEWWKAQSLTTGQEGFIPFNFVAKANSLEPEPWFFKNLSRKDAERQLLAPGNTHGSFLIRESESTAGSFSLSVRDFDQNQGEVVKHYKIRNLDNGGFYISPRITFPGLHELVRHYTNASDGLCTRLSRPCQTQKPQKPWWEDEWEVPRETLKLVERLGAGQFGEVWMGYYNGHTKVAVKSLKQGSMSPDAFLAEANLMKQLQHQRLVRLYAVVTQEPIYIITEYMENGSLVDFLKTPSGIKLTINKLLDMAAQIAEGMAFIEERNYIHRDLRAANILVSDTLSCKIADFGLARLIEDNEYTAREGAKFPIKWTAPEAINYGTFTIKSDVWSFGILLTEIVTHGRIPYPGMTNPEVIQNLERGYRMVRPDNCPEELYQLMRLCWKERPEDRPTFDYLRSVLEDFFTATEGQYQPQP
# TRPC5 = target: T13, TRPC5 (Homo sapiens, UniProt Q9UL62); experiment: cell-based; conditions: for IC50: HEK293T, 100 nmol/L Englerin A, read-out: IC50, inhibition of TRPC5, calcium flux assay; for TRPC5 inhibitory activity in words (SAR): relative to compound 6
# T13 sequence (Q9UL62 1-973): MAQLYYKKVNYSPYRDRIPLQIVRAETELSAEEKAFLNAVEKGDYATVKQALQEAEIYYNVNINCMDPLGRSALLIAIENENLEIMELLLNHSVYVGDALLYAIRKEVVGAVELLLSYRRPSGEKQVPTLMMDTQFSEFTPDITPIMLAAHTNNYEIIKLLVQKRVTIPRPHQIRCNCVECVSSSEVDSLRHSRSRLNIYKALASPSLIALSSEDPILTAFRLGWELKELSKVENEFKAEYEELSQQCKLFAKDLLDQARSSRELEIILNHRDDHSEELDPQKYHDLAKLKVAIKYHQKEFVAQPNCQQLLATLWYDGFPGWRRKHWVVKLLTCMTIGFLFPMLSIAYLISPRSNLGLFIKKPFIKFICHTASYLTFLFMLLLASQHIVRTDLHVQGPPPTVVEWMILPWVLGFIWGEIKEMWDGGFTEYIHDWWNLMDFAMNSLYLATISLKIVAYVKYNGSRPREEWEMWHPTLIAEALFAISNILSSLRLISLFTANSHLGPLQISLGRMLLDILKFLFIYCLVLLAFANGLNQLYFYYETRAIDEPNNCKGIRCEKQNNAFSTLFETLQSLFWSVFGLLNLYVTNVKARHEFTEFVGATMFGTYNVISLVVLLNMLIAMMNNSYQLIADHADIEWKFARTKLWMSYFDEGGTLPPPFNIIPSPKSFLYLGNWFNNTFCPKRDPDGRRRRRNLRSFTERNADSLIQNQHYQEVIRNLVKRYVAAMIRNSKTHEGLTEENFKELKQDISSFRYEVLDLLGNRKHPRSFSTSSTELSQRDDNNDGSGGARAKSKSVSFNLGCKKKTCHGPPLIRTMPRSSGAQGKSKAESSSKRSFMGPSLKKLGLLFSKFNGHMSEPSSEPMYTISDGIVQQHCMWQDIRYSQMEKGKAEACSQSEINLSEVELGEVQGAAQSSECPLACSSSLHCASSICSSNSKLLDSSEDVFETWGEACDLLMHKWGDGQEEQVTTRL
# T1 sequence (P51787 whole entry): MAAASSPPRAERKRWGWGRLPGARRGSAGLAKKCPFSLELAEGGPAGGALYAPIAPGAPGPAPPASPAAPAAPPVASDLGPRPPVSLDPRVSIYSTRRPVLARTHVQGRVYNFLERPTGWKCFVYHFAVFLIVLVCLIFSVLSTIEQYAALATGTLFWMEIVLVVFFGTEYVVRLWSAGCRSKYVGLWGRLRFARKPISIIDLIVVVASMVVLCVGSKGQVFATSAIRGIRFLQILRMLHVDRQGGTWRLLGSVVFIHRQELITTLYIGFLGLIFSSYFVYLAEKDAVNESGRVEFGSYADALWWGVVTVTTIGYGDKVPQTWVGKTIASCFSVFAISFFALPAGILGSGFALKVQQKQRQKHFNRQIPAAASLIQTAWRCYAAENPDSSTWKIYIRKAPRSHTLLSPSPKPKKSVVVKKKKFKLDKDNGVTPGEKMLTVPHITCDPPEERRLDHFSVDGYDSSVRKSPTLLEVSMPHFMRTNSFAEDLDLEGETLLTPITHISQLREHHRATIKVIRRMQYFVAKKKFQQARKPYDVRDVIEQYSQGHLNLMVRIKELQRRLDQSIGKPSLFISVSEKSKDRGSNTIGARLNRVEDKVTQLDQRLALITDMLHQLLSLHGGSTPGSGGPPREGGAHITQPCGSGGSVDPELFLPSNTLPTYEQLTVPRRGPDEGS
smiles,measurement,setting,value
"CCS(=O)(=O)N(C)[C@H]1c2cc(C#N)ccc2OC(C)(C)[C@@H]1O [293B, reference compound]",Antagonist Reference Compounds % Inh,IKs,90.96%
"CCN(CC)CCOC(=O)C(c1ccccc1)c1ccccc1 [Adiphenine, reference compound]",IC50,nAChRα4β2,547 nM
"c1ccc2cc([C@]34CNC[C@H]3C4)ccc2c1 [Centanafadine, reference compound]",IC50,5-HTT,126 nM
same,IC50,DAT,144 nM
same,IC50,NET,139 nM
"NC(CCCP(=O)(O)O)C(=O)O [D-AP5, reference compound]",Antagonist Reference Compounds % Inh,"NR1/NR2B; NR1/NR2B, antagonist mode",87.44%
"CC[C@H](C)[C@H](NC(=O)[C@H](CC(=O)O)NC(=O)[C@H](CC(C)C)NC(=O)[C@H](Cc1cnc[nH]1)NC(=O)[C@@H]1CSSC[C@H](N)C(=O)N[C@@H](CO)C(=O)N[C@H]2CSSC[C@H](NC(=O)[C@H](CCC(=O)O)NC(=O)[C@H](CCCCN)NC(=O)[C@H](CC(=O)O)NC(=O)[C@H](CC(C)C)NC(=O)[C@H](Cc3c[nH]c4ccccc34)NC(=O)[C@H](CO)NC(=O)[C@H](CO)NC2=O)C(=O)N[C@@H](C(C)C)C(=O)N[C@@H](Cc2ccc(O)cc2)C(=O)N[C@@H](Cc2ccccc2)C(=O)N1)C(=O)N[C@H](C(=O)N[C@@H](Cc1c[nH]c2ccccc12)C(=O)O)[C@@H](C)CC [Endothelin 2, reference compound] (H-CSCSSWLDKECVYFCHLDIIW-OH; disulfide 1-15, 3-11)",EC50,ETA,1.89 nM
"NCC(=O)O [Glycine, reference compound]",EC50,NR1/NR2B; read-out: Agonist Reference Compounds EC50,132 nM
"CCCCCN(CCCOC)C(=O)C(CCC(=O)O)NC(=O)c1ccc(Cl)c(Cl)c1 (stereo not drawn) [Loxiglumide, reference compound]",IC50,CCK1,353 nM
"CCCNS(=O)(=O)Nc1ncnc(OCCOc2ncc(Br)cn2)c1-c1ccc(Br)cc1 [Macitentan, reference compound]",IC50,"ETA; ETA, antagonist mode, read-out: Antagonist Reference Compound IC50",3.29 nM
"CNC(=C[N+](=O)[O-])NCCSCc1csc(CN(C)C)n1 [Nizatidine, reference compound]",IC50,H2,112 nM
"CC(C)c1cc(-c2ccc(F)c3ccccc23)nc(N)n1 [RS-127445, reference compound]",IC50,5-HT2B,0.972 nM
"COc1ccc2[nH]cc(C3=CCNCC3)c2c1 [RU 24969, reference compound]",EC50,5-HT1B,4.25 nM
"Cc1cc(-c2cc(O)ccc2Cl)cc2nnc(Nc3ccc(OCCN4CCCC4)cc3)nc12 [TG 100572, reference compound]",IC50,LCK,0.76 nM
O=c1c2c3nc(n2Cc2ccc(Cl)cc2)Oc2cccc(c2)OCCCCCn3c(=O)n1CCCO [compound 5],IC50,TRPC5,28.4 nM
O=c1c2c3nc(n2Cc2ccc(Cl)cc2)Oc2cccc(c2)OCCCCCCn3c(=O)n1CCCO [compound 6],IC50,TRPC5,1.1 nM
O=c1c2c3nc(n2Cc2ccc(Cl)cc2)Oc2cccc(c2)OCCCCCCCn3c(=O)n1CCCO [compound 7],IC50,TRPC5,19.2 nM
O=c1c2c3nc(n2Cc2ccc(Cl)cc2)Oc2cc(ccc2Cl)OCCCCCCn3c(=O)n1CCCO [compound 8],IC50,TRPC5,89.1 nM
same,fold decrease in activity (vs compound 6),"TRPC5; calcium flux, SAR",about 90 fold
O=c1c2c3nc(n2Cc2ccc(Cl)cc2)Oc2ccc(Cl)c(c2)OCCCCCCn3c(=O)n1CCCO [compound 9],IC50,TRPC5,97.5 nM
same,fold decrease in activity (vs compound 6),"TRPC5; calcium flux, SAR",about 90 fold
O=c1c2c3nc(n2Cc2ccc(Cl)cc2)Oc2cncc(c2)OCCCCCCn3c(=O)n1CCCO [compound 11],IC50,TRPC5,0.08 nM
same,fold increase in activity (vs compound 6),"TRPC5; calcium flux, SAR",about 10 fold
CCCn1c2nc3c1c(=O)n(CCCO)c(=O)n3CCCCCCOc1cccc(c1)O2 [compound 12],IC50,TRPC5,3500 nM
same,fold decrease in activity (vs compound 6),"TRPC5; calcium flux, SAR",over 1000 fold
O=c1c2c3nc(n2CCC(F)(F)F)Oc2cccc(c2)OCCCCCCn3c(=O)n1CCCO [compound 13],IC50,TRPC5,1200 nM
same,fold decrease in activity (vs compound 6),"TRPC5; calcium flux, SAR",over 1000 fold
O=c1c2c3nc(n2Cc2nccs2)Oc2cccc(c2)OCCCCCCn3c(=O)n1CCCO [compound 14],IC50,TRPC5,1500 nM
same,fold decrease in activity (vs compound 6),"TRPC5; calcium flux, SAR",over 1000 fold
O=c1c2c3nc(n2Cc2ncco2)Oc2cccc(c2)OCCCCCCn3c(=O)n1CCCO [compound 15],IC50,TRPC5,> 10000 nM
same,fold decrease in activity (vs compound 6),"TRPC5; calcium flux, SAR",over 1000 fold
O=c1c2c3nc(n2Cc2cccc(Cl)c2)Oc2cccc(c2)OCCCCCCn3c(=O)n1CCCO [compound 16],IC50,TRPC5,1.8 nM
same,TRPC5 inhibitory activity in words (SAR),TRPC5; calcium flux,tolerated
O=C1NCCCCCn2c(=O)n(CCCO)c(=O)c3c2nc(n3Cc2ccc(Cl)cc2)Oc2cccc1c2 [compound 17],IC50,TRPC5,> 10000 nM
same,TRPC5 inhibitory activity in words (SAR),TRPC5; calcium flux,completely abolishing the activity
O=c1c2c3nc(n2Cc2ccc(Cl)cc2)Oc2cccc(c2)COCCOCCn3c(=O)n1CCCO [compound 18],IC50,TRPC5,170 nM
same,fold decrease in activity (vs compound 6),"TRPC5; calcium flux, SAR",100 fold
O=c1c2c3nc(n2Cc2ccc(Cl)cc2)Oc2cccc(c2)OCCNCCCn3c(=O)n1CCCO [compound 19],IC50,TRPC5,840 nM
same,TRPC5 inhibitory activity in words (SAR),TRPC5; calcium flux,reduced activity
CC(C)(O)CCn1c(=O)c2c3nc(n2Cc2ccc(Cl)cc2)Oc2cccc(c2)OCCCCCCn3c1=O [compound 20],IC50,TRPC5,10000 nM
CC(O)CCn1c(=O)c2c3nc(n2Cc2ccc(Cl)cc2)Oc2cccc(c2)OCCCCCCn3c1=O (stereo not drawn) [compound 21],IC50,TRPC5,10 nM
same,TRPC5 inhibitory activity in words (SAR),TRPC5; calcium flux,tolerated
CC(CO)Cn1c(=O)c2c3nc(n2Cc2ccc(Cl)cc2)Oc2cccc(c2)OCCCCCCn3c1=O (stereo not drawn) [compound 22],IC50,TRPC5,220 nM
O=c1c2c3nc(n2Cc2ccc(Cl)cc2)Oc2cccc(c2)OCCCCCCn3c(=O)n1CC(O)CO (stereo not drawn) [compound 23],IC50,TRPC5,790 nM
O=c1c2c3nc(n2Cc2ccc(Cl)cc2)Oc2cccc(c2)OCCCCCCn3c(=O)n1CC(F)(F)CO [compound 24],IC50,TRPC5,440 nM
